Here are results for two substances from patent publication US7173007B1, “Therapy for microbial infections” (The Regents of the University of California, priority 2003, dated 2007).

One assay concerns MRSA (ATCC 33591). Put plainly: Radial diffusion (inhibition zone) assay. In kind it is cell-based, Staphylococcus aureus. The following applies: MRSA (Gram-positive). As for the experimental part:
(§1) FIGS. 3A–C show Growth inhibition of MRSA, E. coli, and P. aeruginosa by cathelin-like protein. (a) Inhibition zone ssay on tryptone/agarose plates with MRSA. Clear circles show lack of bacterial growth. Lanes 1, 3, 5, bottom row: cathelin-like protein at […], 16 μM, respectively. Lane 2, top row:[…] of His-tagged cathelin-like protein before cleavage. Lane 4, top: enterokinase enzyme alone. All assays were performed in duplicate and repeated three times. (b), (c) CFU assay: growth inhibition of (b) MRSA and (c) E. coli, cultured in 10 mM phosphate and 1% TSB (pH 7.4) and then supplemented with different concentrations of human cathelin-like protein.
Antimicrobial assays. E. coli (ATCC 25922), Pseudomonas aeruginosa (ATCC 8427), Salmonella typhimurium (ATCC 13311), Proteus vulgaris (ATCC 8427), Staphylococcus epidermidis (ATCC 12228), and MRSA (ATCC 33591) isolates were maintained on trypticase soy broth (TSB) agar plates. Individual colonies were selected and cultured overnight in TSB, subcultured once at 1:50 in fresh TSB, and then grown to stationary phase for use in all experiments. The radial diffusion assay was performed in 0.5% agarose and 0.75% tryptone brought to ebullition and cooled to 43° C., and then mixed with […] of bacterial suspension and poured into a 10 cm Petri dish. […]

For assay [1], the system named is Pseudomonas aeruginosa (ATCC 8427). Description: Radial diffusion (inhibition zone) assay. In kind it is cell-based. The settings on record: P. aeruginosa. The procedure: (§2) Antimicrobial assays. E. coli (ATCC 25922), Pseudomonas aeruginosa (ATCC 8427), Salmonella typhimurium (ATCC 13311), Proteus vulgaris (ATCC 8427), Staphylococcus epidermidis (ATCC 12228), and MRSA (ATCC 33591) isolates were maintained on trypticase soy broth (TSB) agar plates. Individual colonies were selected and cultured overnight in TSB, subcultured once at 1:50 in fresh TSB, and then grown to stationary phase for use in all experiments. The radial diffusion assay was performed in 0.5% agarose and 0.75% tryptone brought to ebullition and cooled to 43° C., and then mixed with […] of bacterial suspension and poured into a 10 cm Petri dish. A series of small wells (diameter, 3 mm) were punched in the plate after the agarose solidified. Two microliters of test samples were applied in each well. Plates were incubated at 37° C. overnight to allow visible growth of bacteria. Antibacterial activity was indicated by the clear zone (no bacterial growth) around the well.
(§3) Antimicrobial activity of recombinant cathelin-like protein. Recombinant cathelicidins were tested for antimicrobial activity using a standard radial diffusion assay. Different concentrations of the cathelin-like protein were loaded into wells on assay plates containing Gram-positive MRSA, S. epidermidis, and strains of the Gram-negative bacterial species E. coli, S. enteritidis, P. vulgaris, and P. aeruginosa. […] Similarly, cathelin-like protein inhibited growth of S. epidermidis ([…]) but not S. enteritidis or P. vulgaris.

A further assay has as its system S. enteritidis. Put plainly: Radial diffusion (inhibition zone) assay. In kind it is cell-based. The procedure:
as §2, §3

The test system of the next assay is E. coli (ATCC 25922). Put plainly: Radial diffusion (inhibition zone) assay. The assay is classed as cell-based. The procedure:
as §2, §3

Assay [2] relates to Staphylococcus epidermidis (ATCC 12228). Description: Radial diffusion (inhibition zone) assay. The following applies: S. epidermidis (Gram-positive). The assay is classed as cell-based. The procedure: as §2, §3
The test system of a further assay is E. coli. Description: Colony-forming assay (CFU), liquid phase. In kind it is cell-based. The settings on record: 3 (unit uncertain), 10 mM phosphate, 1% TSB, pH 7.4. On the set-up: unit of the concentration uncertain. As for the experimental part:
as §1
(§4) The colony-forming assay (CFU) was performed. Bacterial cultures (E. coli or MRSA) were collected at the logarithmic phase of growth in TSB, washed twice with phosphate-buffered saline, pH 7.4, and diluted to 104 CFU per ml in 10 mM phosphate buffer, pH 7.4, Na2HPO4/NaH2PO4-1% TSB (g per 1). Forty-five microliters of bacterial suspension were mixed with […] of H2O (control) or with […] of different concentrations of cathelin-like proteins, and the mixture was incubated at 37° C. Every 30 min, a […] aliquot of the reaction mixture was plated directly onto a TSB agar plate and then incubated at 37° C. overnight for enumeration of CFU. Data are reported as growth index=final CFU/CFU in initial inoculum. […]

The test system of a further assay is MRSA. Put plainly: Colony-forming assay (CFU), liquid phase. The assay is classed as cell-based, Staphylococcus aureus. The following applies: 10 mM phosphate, 1% TSB, pH 7.4. The procedure: as §1, §4

Turning to CRAMP [reference compound], the “growth inhibition” value is “inactive” in the assay with MRSA (ATCC 33591); “highly active” in assay [1]; “highly active” with S. enteritidis; “highly active” in the assay with E. coli (ATCC 25922); “inactive” in assay [2].

For the substance “LL-37: C-terminal 37 amino acid mature antimicrobial peptide of human hCAP18 (LLGDFFRKSKEKIGKEFKRIVQRIKDFLRNLVPRTES) [reference compound]”, the “growth inhibition” value was “inactive” in the assay with MRSA (ATCC 33591); “highly active” in assay [1]; “highly active” in the assay with S. enteritidis; “highly active” with E. coli (ATCC 25922); “inactive” in assay [2]. Further, the “effect on growth (CFU)” value in the assay with E. coli was “bactericidal”; in the assay with MRSA it was “no effect”.
